Measured values published in paper PMC5122408, “High throughput chemical library screening identifies a novel p110-δ inhibitor that potentiates the anti-myeloma effect of bortezomib” (Oncotarget, 2016).
Read-outs that look alike come from different tables or passages of the source.

Key:
AMPK = assay: Kinase inhibitory profile; assay type: biochemical; conditions: Other Clinically-relevant Kinases; 10-point concentration assays
A549 = assay: NCI-60 panel cell growth screen; assay type: cell-based, human; conditions: A549 (NSCLC)
HCC-2998 = assay: NCI-60 panel cell growth screen; assay type: cell-based, human; conditions: HCC-2998 (Colon cancer)
KM12 = assay: NCI-60 panel cell growth screen; assay type: cell-based, human; conditions: KM12 (Colon cancer)
HL-60 (TB) = HL-60 (TB) (Leukemia)
PKC2β = PKC2β (Homo sapiens, UniProt O00750); assay: Kinase inhibitory profile; assay type: biochemical; conditions: Class II PI3Ks; 10-point concentration assays
DNA-PK = DNA-PK (Homo sapiens, UniProt P78527); assay: Kinase inhibitory profile; assay type: biochemical; conditions: Class IV PI3Ks; 10-point concentration assays
mTOR = mTOR (Homo sapiens, UniProt P42345); assay: Kinase inhibitory profile; assay type: biochemical; conditions: Class IV PI3Ks; 10-point concentration assays
FGFR = assay: Kinase inhibitory profile; assay type: biochemical; conditions: Other Clinically-relevant Kinases; 10-point concentration assays
CXCR12 = assay: CXCL12/SDF-1 alpha ELISA, MM cells co-cultured with BMSCs; assay type: cell-based, human
ERBB2 = ERBB2 (Homo sapiens, UniProt P04626); assay: Kinase inhibitory profile; assay type: biochemical; conditions: Other Clinically-relevant Kinases; 10-point concentration assays
MM cells [1] = assay: XTT viability, MM cells (DT97 vs idelalisib); assay type: cell-based; conditions: parental and drug-resistant MM cells; 1 uM; 72 h; XTT assay
Procedure: (§1) Values represent the average of triplicate measurements. […] Values represent the average of triplicate measurements. […] Values represent the average of triplicate measurements.
(§2) Cells were plated, treated as indicated for 72 h and 2, 3-bis-(2-methoxy-4-nitro-5-sulfophenyl)-2H-tetrazolium-5-carboxanilide) added (Sigma-Aldrich) after activation with N-methyl dibenzopyrazine methyl sulfate (Sigma-Aldrich). Absorbance was measured and the effect on myeloma viability determined as previously described. Assays were performed in triplicate and the mean and standard deviation determined. Relative cell viability (mean ± SD) was calculated compared to readings from untreated cells.

RPMI8226 cells = assay: XTT viability of RPMI8226 cells after PIK3CD shRNA knockdown; assay type: cell-based; conditions: XTT assay
Procedure: as §1, §2
shRNA in pLKO.1-TCR lentiviral cloning vectors were transfected into 293T packaging cells with packaging and envelope vector using lipofectamine 2000 (Thermo-Fisher). Viral supernatants were used to transduce myeloma cells. After 48 h, virus was collected and RPMI8226 cells transduced with vectors expressing scrambled (control) or p110-specific shRNA. Cells were mixed with virus and polybrene (8 μg/mL), centrifuged at 2000 × rpm for 90 min, incubated overnight, media changed and selected in puromycin.

IL-6 = IL-6 ELISA, MM cells co-cultured with BMSCs; assay type: cell-based, human
NCI-H332M = assay: NCI-60 panel cell growth screen; assay type: cell-based, human; conditions: NCI-H332M (NSCLC)
p110-β = p110-β (Homo sapiens, UniProt P42338); assay: Kinase inhibitory profile / PIP3 production
Sequence of p110-β (P42338 whole entry): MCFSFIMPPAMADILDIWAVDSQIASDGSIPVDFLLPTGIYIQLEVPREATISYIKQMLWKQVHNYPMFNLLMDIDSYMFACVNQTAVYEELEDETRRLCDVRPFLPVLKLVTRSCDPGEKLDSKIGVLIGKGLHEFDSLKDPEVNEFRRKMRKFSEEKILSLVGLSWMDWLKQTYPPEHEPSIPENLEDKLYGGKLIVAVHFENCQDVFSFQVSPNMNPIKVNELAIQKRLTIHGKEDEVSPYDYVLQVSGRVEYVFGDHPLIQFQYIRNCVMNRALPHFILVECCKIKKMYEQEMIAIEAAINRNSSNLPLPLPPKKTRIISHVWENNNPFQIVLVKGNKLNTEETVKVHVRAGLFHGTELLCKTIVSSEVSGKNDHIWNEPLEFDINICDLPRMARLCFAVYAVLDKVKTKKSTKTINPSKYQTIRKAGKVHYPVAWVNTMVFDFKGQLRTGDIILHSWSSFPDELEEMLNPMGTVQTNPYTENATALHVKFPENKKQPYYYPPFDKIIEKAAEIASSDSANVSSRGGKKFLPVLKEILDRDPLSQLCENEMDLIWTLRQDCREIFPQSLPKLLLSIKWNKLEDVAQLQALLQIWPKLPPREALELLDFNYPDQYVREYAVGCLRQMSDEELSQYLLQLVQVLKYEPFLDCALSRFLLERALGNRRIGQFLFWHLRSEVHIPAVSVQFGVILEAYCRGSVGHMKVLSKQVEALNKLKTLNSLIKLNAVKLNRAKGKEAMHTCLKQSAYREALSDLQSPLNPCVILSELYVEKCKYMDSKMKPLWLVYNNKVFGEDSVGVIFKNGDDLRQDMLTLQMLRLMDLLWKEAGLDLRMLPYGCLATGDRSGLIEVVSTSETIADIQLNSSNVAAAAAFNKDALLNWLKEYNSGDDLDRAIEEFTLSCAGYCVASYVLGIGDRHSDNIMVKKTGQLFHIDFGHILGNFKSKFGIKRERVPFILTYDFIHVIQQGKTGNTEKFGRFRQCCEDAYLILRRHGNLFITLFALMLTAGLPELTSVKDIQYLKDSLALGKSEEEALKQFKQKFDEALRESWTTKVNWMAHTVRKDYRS
Sequence of p110-β (P27986 whole entry partner): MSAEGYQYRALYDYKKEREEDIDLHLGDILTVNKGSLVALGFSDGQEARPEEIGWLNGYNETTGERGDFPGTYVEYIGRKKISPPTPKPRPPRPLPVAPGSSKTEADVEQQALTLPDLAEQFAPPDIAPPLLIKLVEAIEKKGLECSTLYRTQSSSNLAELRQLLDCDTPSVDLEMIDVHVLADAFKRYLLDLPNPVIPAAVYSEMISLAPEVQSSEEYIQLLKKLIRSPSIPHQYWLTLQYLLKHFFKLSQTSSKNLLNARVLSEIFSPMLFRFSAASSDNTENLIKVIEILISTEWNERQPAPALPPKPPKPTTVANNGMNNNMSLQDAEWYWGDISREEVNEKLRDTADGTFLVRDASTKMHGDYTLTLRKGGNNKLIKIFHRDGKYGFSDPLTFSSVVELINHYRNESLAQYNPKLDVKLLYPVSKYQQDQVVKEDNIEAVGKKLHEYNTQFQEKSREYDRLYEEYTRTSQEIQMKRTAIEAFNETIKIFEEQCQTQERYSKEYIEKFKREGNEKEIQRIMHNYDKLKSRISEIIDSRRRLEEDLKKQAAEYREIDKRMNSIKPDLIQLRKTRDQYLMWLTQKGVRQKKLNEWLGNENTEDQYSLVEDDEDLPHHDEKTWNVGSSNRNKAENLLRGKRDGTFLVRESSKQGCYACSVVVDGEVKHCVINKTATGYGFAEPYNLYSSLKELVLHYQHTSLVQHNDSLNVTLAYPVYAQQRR
Procedure: To directly assess PI3K activity, PI3K was isolated by immunoprecipitation using an antibody to the p85 adapter subunit and the ability of the co-precipitated catalytic p110 subunit to convert PIP2 to PIP3 in a kinase reaction assessed by measuring the amount of PIP3 generated using a competitive ELISA [40, 41]. […] Lysates were centrifuged at 13,000 × rpm for 10 min and supernatants stored at −80°C. Frozen lysates were thawed and PI3K immunoprecipitated with 5 μl anti-PI3K p85 (Cell Signaling Technology, Danvers, MA) for 1 h at 4°C, followed by the addition of 60 μl of a 50% slurry of Protein A agarose beads for 1 h at 4°C. The immunoprecipitate was collected by centrifugation at 13,000 × rpm for 10 sec, washed 3 times in buffer A + 1% NP40, thrice with 0.1 M Tris-HCl, pH 7.4, 5 mM LiCl, 0.1 mM Na orthovanadate and twice with 10 mM Tris-HCl, pH 7.4, 150 mM NaCl, 5 mM ethylenediaminetetraacetic acid (EDTA), 0.1 mM Na orthovanadate. […] Reactions were incubated for 3 h at 37°C with 40 pmol PIP2 (Echelon Biosciences, Salt Lake City, UT). Reactions were stopped with EDTA (5 mM) and centrifuged at 13,000 × rpm at 4°C. Supernatants were transferred to a microtitre plate for a competitive ELISA (Echelon Biosciences) to quantify PIP3 generated. […] Absorbance was measured (450 nm) and PIP3 quantified using a standard curve generated with experimental samples and plotted on a log scale.

MAPK = assay: Kinase inhibitory profile; assay type: biochemical; conditions: Other Clinically-relevant Kinases; 10-point concentration assays
NCI-H226 = assay: NCI-60 panel cell growth screen; assay type: cell-based, human; conditions: NCI-H226 (NSCLC)
MM cells [2] = assay: Transwell chemotaxis of CFSE-labeled MM cells toward BMSCs; assay type: cell-based; conditions: counted at 72 h
Text: BMSCs induce the migration and homing (chemotaxis) of MM cells to BM. […] MM cells were placed in the upper chamber separated from BMSCs in the lower chamber by a semi-permeable membrane. […] It appears that DT97 treatment prevents MM migration, in part, through the reduction of cytokine production.

SR = assay: NCI-60 panel cell growth screen; assay type: cell-based, human; conditions: SR (Leukemia)
p110-α = p110-α (Homo sapiens, UniProt P42336); assay: Kinase inhibitory profile / PIP3 production; parameters: Inhibitory profile (kinase inhibition): key to the marks not given beside the values
Sequence of p110-α (P42336 whole entry): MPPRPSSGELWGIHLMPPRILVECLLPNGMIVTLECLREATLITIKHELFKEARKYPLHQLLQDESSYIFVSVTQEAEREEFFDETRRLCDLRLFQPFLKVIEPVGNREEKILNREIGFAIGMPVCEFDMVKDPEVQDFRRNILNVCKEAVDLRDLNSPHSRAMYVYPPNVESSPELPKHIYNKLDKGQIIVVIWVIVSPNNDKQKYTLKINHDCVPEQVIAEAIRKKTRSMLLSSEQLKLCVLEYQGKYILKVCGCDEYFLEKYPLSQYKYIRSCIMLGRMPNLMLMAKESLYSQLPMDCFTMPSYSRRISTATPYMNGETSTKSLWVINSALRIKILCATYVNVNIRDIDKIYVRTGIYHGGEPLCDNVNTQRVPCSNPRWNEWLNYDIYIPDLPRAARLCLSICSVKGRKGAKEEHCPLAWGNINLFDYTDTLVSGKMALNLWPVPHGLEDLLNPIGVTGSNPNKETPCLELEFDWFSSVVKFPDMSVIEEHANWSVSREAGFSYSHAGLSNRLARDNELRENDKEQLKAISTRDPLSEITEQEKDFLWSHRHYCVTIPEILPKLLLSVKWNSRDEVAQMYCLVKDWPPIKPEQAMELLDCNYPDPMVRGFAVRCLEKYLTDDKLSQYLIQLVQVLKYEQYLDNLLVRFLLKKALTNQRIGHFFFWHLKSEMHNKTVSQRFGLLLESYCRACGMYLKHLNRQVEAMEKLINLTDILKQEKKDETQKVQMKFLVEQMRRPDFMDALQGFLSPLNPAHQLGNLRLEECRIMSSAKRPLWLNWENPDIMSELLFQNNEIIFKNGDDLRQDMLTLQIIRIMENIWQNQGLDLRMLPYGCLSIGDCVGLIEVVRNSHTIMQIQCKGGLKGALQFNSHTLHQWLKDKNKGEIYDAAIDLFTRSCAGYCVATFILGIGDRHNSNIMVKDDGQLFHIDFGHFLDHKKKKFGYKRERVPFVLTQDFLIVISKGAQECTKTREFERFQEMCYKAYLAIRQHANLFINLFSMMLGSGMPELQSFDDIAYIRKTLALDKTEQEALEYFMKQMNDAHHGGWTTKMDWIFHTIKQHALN
Sequence of p110-α (P27986 whole entry partner): as the sequence (P27986 whole entry partner) above

MOLT-4 = assay: NCI-60 panel cell growth screen; assay type: cell-based, human; conditions: MOLT-4 (Leukemia)
p110-δ = p110-δ (Homo sapiens, UniProt O00329); assay: Kinase inhibitory profile / PIP3 production; parameters: Inhibitory profile (kinase inhibition): key to the marks not given beside the values
Sequence of p110-δ (O00329 whole entry): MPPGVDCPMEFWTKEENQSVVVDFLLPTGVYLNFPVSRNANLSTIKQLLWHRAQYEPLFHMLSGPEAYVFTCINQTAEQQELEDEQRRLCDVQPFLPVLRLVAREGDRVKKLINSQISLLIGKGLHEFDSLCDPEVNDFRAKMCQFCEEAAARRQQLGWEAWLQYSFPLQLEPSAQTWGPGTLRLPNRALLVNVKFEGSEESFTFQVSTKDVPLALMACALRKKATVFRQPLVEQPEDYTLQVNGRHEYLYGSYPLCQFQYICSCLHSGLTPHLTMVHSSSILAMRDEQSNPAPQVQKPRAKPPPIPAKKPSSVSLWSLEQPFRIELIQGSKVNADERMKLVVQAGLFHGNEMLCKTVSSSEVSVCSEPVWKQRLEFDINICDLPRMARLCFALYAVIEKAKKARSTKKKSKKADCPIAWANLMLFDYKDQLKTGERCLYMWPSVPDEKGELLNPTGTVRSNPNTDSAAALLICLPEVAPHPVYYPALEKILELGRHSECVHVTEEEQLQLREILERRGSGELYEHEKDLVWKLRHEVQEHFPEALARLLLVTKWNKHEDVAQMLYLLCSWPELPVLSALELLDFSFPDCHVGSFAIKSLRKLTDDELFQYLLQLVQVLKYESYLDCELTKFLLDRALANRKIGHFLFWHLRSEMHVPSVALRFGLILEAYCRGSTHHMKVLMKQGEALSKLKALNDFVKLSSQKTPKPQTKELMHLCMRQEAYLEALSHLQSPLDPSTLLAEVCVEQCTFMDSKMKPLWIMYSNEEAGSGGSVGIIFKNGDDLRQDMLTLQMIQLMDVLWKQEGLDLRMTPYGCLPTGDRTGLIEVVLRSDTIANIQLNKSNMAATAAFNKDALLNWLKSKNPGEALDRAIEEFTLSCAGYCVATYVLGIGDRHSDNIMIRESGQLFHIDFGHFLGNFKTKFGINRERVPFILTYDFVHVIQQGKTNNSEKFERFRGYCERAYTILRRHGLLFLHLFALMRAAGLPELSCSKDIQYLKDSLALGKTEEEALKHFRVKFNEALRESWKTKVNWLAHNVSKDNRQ
Sequence of p110-δ (P27986 whole entry partner): as the sequence (P27986 whole entry partner) above

[3] = read-out: LC50 (the source's name)
[4] = Class I PI3Ks, 10-point concentration assays

Q: “N-[4-hydroxy-3-(8-quinolinylthio)-1-naphthyl]benzenesulfonamide [DT97]” was tested. Which “Inhibitory profile (kinase inhibition)” value (AMPK) did it give?
A: Its value is “+”.

Q: What about the GI50 (A549) of the same substance?
A: Its GI50 is 747 nM.

Q: And the TGI (A549)?
A: The TGI was 1.81E-5.

Q: What about the “Percent Growth” value (A549; log concentration −4.0) of the same substance?
A: The value was −46%.

Q: And the “Percent Growth” value (A549; log concentration −5.0)?
A: The value was 16%.

Q: And the “Percent Growth” value (A549; log concentration −6.0)?
A: Its value is 41%.

Q: And the “Percent Growth” value (A549; log concentration −7.0)?
A: The value was 112%.

Q: What about the “Percent Growth” value (A549; log concentration −8.0) of the same substance?
A: The value was 106%.

Q: What about the GI50 (HCC-2998) of the same substance?
A: Its GI50 is 4770 nM.

Q: What about the TGI (HCC-2998) of the same substance?
A: The TGI was 1.91E-5.

Q: What about the “Percent Growth” value (HCC-2998; log concentration −4.0) of the same substance?
A: Its value is −82%.

Q: And the “Percent Growth” value (HCC-2998; log concentration −5.0)?
A: The value was 32%.

Q: And the “Percent Growth” value (HCC-2998; log concentration −6.0)?
A: Its value is 88%.

Q: What about the “Percent Growth” value (HCC-2998; log concentration −7.0) of the same substance?
A: The value was 106%.

Q: What about the “Percent Growth” value (HCC-2998; log concentration −8.0) of the same substance?
A: The value was 105%.

Q: And the CC50 (HCC-2998; [3])?
A: The CC50 was 52400 nM.

Q: And the GI50 (KM12)?
A: Its GI50 is 2030 nM.

Q: And the TGI (KM12)?
A: Its TGI is 1.65E-5.

Q: What about the “Percent Growth” value (KM12; log concentration −4.0) of the same substance?
A: Its value is −87%.

Q: What about the “Percent Growth” value (KM12; log concentration −5.0) of the same substance?
A: The value was 24%.

Q: What about the “Percent Growth” value (KM12; log concentration −6.0) of the same substance?
A: Its value is 61%.

Q: What about the “Percent Growth” value (KM12; log concentration −7.0) of the same substance?
A: Its value is 104%.

Q: What about the “Percent Growth” value (KM12; log concentration −8.0) of the same substance?
A: The value was 104%.

Q: What about the CC50 (KM12; [3]) of the same substance?
A: The CC50 was 46600 nM.

Q: And the GI50 (HL-60 (TB))?
A: The GI50 was 487 nM.

Q: What about the TGI (HL-60 (TB)) of the same substance?
A: Its TGI is 4.69E-6.

Q: And the “Percent Growth” value (HL-60 (TB); log concentration −4.0)?
A: The value was −63%.

Q: And the “Percent Growth” value (HL-60 (TB); log concentration −5.0)?
A: The value was −15%.

Q: What about the “Percent Growth” value (HL-60 (TB); log concentration −6.0) of the same substance?
A: Its value is 31%.

Q: What about the “Percent Growth” value (HL-60 (TB); log concentration −7.0) of the same substance?
A: Its value is 93%.

Q: And the “Percent Growth” value (HL-60 (TB); log concentration −8.0)?
A: Its value is 99%.

Q: And the CC50 (HL-60 (TB); read-out: LC50)?
A: The CC50 was 53100 nM.

Q: What about the “Inhibitory profile (kinase inhibition)” value (PKC2β) of the same substance?
A: The value was “+”.

Q: What about the “Inhibitory profile (kinase inhibition)” value (DNA-PK) of the same substance?
A: The value was “+”.

Q: What about the “Inhibitory profile (kinase inhibition)” value (mTOR) of the same substance?
A: The value was “+”.

Q: What about the “Inhibitory profile (kinase inhibition)” value (FGFR) of the same substance?
A: The value was “none”.

Q: What about the “production of CXCR12” value (CXCR12) of the same substance?
A: The value was “induction was inhibited”.

Q: What about the “Inhibitory profile (kinase inhibition)” value (ERBB2) of the same substance?
A: Its value is “+”.

Q: What about the viability (MM cells [1]) of the same substance?
A: Its viability is “more potently than idelalisib”.

Q: What about the viability (RPMI8226 cells) of the same substance?
A: Its viability is “little effect”.

Q: And the “production of Il-6” value (IL-6)?
A: The value was “induction was inhibited”.

Q: What about the GI50 (NCI-H332M) of the same substance?
A: Its GI50 is 2310 nM.

Q: And the LC50 (NCI-H332M)?
A: The LC50 was 39400 nM.

Q: What about the TGI (NCI-H332M) of the same substance?
A: The TGI was 1.37E-5.

Q: And the “Percent Growth” value (NCI-H332M; log concentration −4.0)?
A: The value was −94%.

Q: And the “Percent Growth” value (NCI-H332M; log concentration −5.0)?
A: Its value is 15%.

Q: What about the “Percent Growth” value (NCI-H332M; log concentration −6.0) of the same substance?
A: The value was 70%.

Q: And the “Percent Growth” value (NCI-H332M; log concentration −7.0)?
A: The value was 94%.

Q: And the “Percent Growth” value (NCI-H332M; log concentration −8.0)?
A: The value was 94%.

Q: What about the “Inhibitory profile (kinase inhibition)” value (p110-β; [4]) of the same substance?
A: The value was “none”.

Q: And the “production of PIP3 (dose-dependent effect)” value (“production of PIP3” for short) (p110-β; p110-β isoform, Figure 4B)?
A: The value was “no effect”.

Q: And the “Inhibitory profile (kinase inhibition)” value (MAPK)?
A: Its value is “+”.

Q: What about the GI50 (NCI-H226) of the same substance?
A: The GI50 was 2450 nM.

Q: What about the TGI (NCI-H226) of the same substance?
A: The TGI was 2.54E-5.

Q: What about the “Percent Growth” value (NCI-H226; log concentration −4.0) of the same substance?
A: The value was −40%.

Q: And the “Percent Growth” value (NCI-H226; log concentration −5.0)?
A: The value was 27%.

Q: What about the “Percent Growth” value (NCI-H226; log concentration −6.0) of the same substance?
A: The value was 65%.

Q: What about the “Percent Growth” value (NCI-H226; log concentration −7.0) of the same substance?
A: Its value is 94%.

Q: And the “Percent Growth” value (NCI-H226; log concentration −8.0)?
A: Its value is 92%.

Q: And the “migration of MM cells into the lower chambers with BMSCs” value (MM cells [2])?
A: Its value is “reduced the migration”.

Q: And the GI50 (SR)?
A: Its GI50 is 426 nM.

Q: And the TGI (SR)?
A: Its TGI is 1.72E-5.

Q: What about the “Percent Growth” value (SR; log concentration −4.0) of the same substance?
A: The value was −15%.

Q: And the “Percent Growth” value (SR; log concentration −5.0)?
A: Its value is 5%.

Q: What about the “Percent Growth” value (SR; log concentration −6.0) of the same substance?
A: The value was 13%.

Q: What about the “Percent Growth” value (SR; log concentration −7.0) of the same substance?
A: The value was 113%.

Q: And the “Percent Growth” value (SR; log concentration −8.0)?
A: The value was 109%.

Q: And the CC50 (SR; [3])?
A: Its CC50 is over 100000 nM.

Q: And the “Inhibitory profile (kinase inhibition)” value (p110-α; [4])?
A: The value was “++”.

Q: What about the “production of PIP3” value (p110-α; p110-α isoform, Figure 4B) of the same substance?
A: The value was “weaker activity”.

Q: And the GI50 (MOLT-4)?
A: Its GI50 is 546 nM.

Q: And the LC50 (MOLT-4)?
A: Its LC50 is over 100000 nM.

Q: And the TGI (MOLT-4)?
A: Its TGI is 5.53E-6.

Q: What about the “Percent Growth” value (MOLT-4; log concentration −4.0) of the same substance?
A: Its value is −28%.

Q: What about the “Percent Growth” value (MOLT-4; log concentration −5.0) of the same substance?
A: Its value is 9%.

Q: And the “Percent Growth” value (MOLT-4; log concentration −6.0)?
A: Its value is 27%.

Q: And the “Percent Growth” value (MOLT-4; log concentration −7.0)?
A: The value was 116%.

Q: What about the “Percent Growth” value (MOLT-4; log concentration −8.0) of the same substance?
A: The value was 111%.

Q: What about the “Inhibitory profile (kinase inhibition)” value (p110-δ; [4]) of the same substance?
A: The value was “+++”.

Q: And the “production of PIP3” value (p110-δ; p110-δ isoform, Figure 4B)?
A: Its value is “most potently”.
